Test results: patent US8034819B2, “Glucokinase activator” (Kyorin Pharmaceutical Co., Ltd., priority 2007, dated 2011)

Tested on: ICR mice
Assay: Hypoglycemic activity test
Type: in vivo
Settings: compared with compound 1 of the invention
Description: Using ICR mice (male, 7 to 9 weeks, Charles River Laboratories Japan Inc.) the effects of each of the tested compounds on blood glucose levels were measured. Each compound was dissolved in a mixture of 60/40 of Gelucire 44/14 (trade name, manufactured by Gatefosse) and PEG 400, and the resulting mixture was orally administered (30 mg/kg, 10 mL/kg) to the mice, which had not been fed for two hours. Blood was collected by a blood collection tube coated with dipotassium ethylenediamine tetraacetate from the tail vein before administration (pre-value) and at points 0.5, 2, and 4 hours after administration. The collected blood was separated by centrifugation (4° C., 3,600×g, 3 minutes), to obtain blood plasma samples.
Each sample was diluted 5-fold with physiological saline, and the blood glucose level was measured using glucose CII-test Wako (trade name, manufactured by Wako Pure Chemical Industries Ltd.). 10 μL each of one of the samples, physiological saline, and 100 mg/dL of glucose standard solution (200 mg/dL of glucose standard solution diluted two-fold with physiological saline) were placed in each well of a 96 well flat bottom plate. Then, 150 μL per well of a developing solution was added, and the color was developed by standing for 5 minutes at 37° C. Measurement was carried out at OD 505 nm using an En Vision 2103 Multilabel Reader (trade name, manufactured by PerkinElmer). The decrease in Σ glucose from the decrease in glucose of each collected point with respect to the pre-value (average of the decrease in glucose of each collected point with respect to the pre-value) was calculated.

| Compound | hypoglycemic activity (in words) |
| --- | --- |
| O=C(Nc1nccs1)C(CC1CC(F)C(F)C1)c1ccc(S(=O)(=O)C2CC2)cc1 (single isomer, unassigned; (+)) [(+)-2-[4-(cyclopropylsulfonyl)phenyl]-3-[(1β,3α,4α)-3,4-difluorocyclopentyl]-N-(thiazol-2-yl)propionamide] | do not exhibit high hypoglycemic activity |
| O=C(Nc1nccs1)C(C[C@H]1C[C@@H](F)[C@@H](F)C1)c1ccc(S(=O)(=O)C2CC2)cc1 (single isomer, unassigned; (+)) [Reference Example 3, (+)-2-[4-(Cyclopropylsulfonyl)phenyl]-3-[(1α,3α,4α)-3,4-difluorocyclopentyl]-N-(thiazol-2-yl)propionamide] | do not exhibit high hypoglycemic activity |
| O=C(Nc1nccs1)C(CC1CC(F)C(F)C1)c1ccc(S(=O)(=O)C2CC2)cc1 (single isomer, unassigned; (-)) [(−)-2-[4-(Cyclopropylsulfonyl)phenyl]-3-[(1β,3α,4α)-3,4-difluorocyclopentyl]-N-(thiazol-2-yl)propionamide] | do not exhibit high hypoglycemic activity |
